This note sets out measurements from patent US8546403B2, “Compounds that modulate intracellular calcium” (Calcimedica, Inc., priority 2010, dated 2013).

Each structure is given as a SMILES string.

The first series can be described thus: Microsomal stability of compounds (liver microsomes, LC/MS/MS). It counts as in vitro ADME. Conditions: 5 μM test compound, 1 mg/mL microsomal protein, 37° C. up to 60 minutes, species and Phase I / Phase I+II not given. Here is the method: Microsomal Stability of Compounds Described Herein
Liver microsomes are purchased from XenoTech, LLC (Lenexa, Kans.). Other chemicals are obtained from Sigma-Aldrich (Milwaukee, Wis.). Solvents for LC/MS/MS mobile phases and disposable labware are obtained from various vendors.
Study Protocol Phase I Only (Oxidative Metabolism in the Presence of NADPH-Regenerating System but without UDPGA):
A mixture of the test compound and liver microsomes (475 μL total) are pre-incubated for 5 minutes at 37° C. The reactions are initiated by the addition of 25 μL of the co-factor NADPH regenerating system) and are allowed to proceed at 37° C. for up to 60 minutes. The final concentrations in the assay were: 5 μM test compound, 1 mg/mL microsomal protein, 1 mM NADP+, 5 mM glucose-6-phosphate and 1 U/mL glucose-6-phosphate dehydrogenase in 50 mM potassium phosphate (pH 7.4) containing 3.3 mM MgCl2 and 100 μM EDTA. […] At pre-determined time points, the reactions are terminated by removing 50 μL-aliquots and quenching them with […] of ACN mixture containing 0.5 μM of the internal standard (carbamazepine) to achieve protein precipitation. The samples are vortexed, centrifuged at 4000 rpm (3400 rcf) for 15 minutes, and clear supernatants are analyzed by LC/MS/MS.
Phase I and II: (Oxidative Metabolism and Conjugation in the Presence of NADPH-Regenerating System and UDPGA):
The reaction mixtures are prepared similar to what is described above, except 6.6 mM UDPGA, 6.25 μg/mL alamethicin, and 1.25 mM of D-Saccharic acid 1,4-lactone (final assay concentrations) are also added together with the NADPH-regenerating system. Midazolam and 4-methylumbelliferone are used as positive controls for Phase I and Phase II, respectively.
Bioanalysis is conducted using a non-GLP LC/MS/MS method. Calibration curves are not generated and the ratios of the test compound peak area to the internal standard peak area are used to determine the relative amounts of test compound remaining at each time point.
For orientation: Microsomes from liver hold many membrane-bound enzymes, among them those of drug oxidation.
As for `O=C(Nc1ccc(-c2cc3c(cc2Cl)OC(F)(F)O3)cn1)c1c(F)cccc1F` [Compound 3], the “Microsomal t ½ (min)” value is on record as “Stable (Stable is defined herein as less than 10% degradation)”.
Regarding `O=C(Nc1ccc(-c2cc3c(cc2Cl)OC(F)(F)O3)cn1)c1ccncc1Cl` [Compound 8], the “Microsomal t ½ (min)” value is “Stable (Stable is defined herein as less than 10% degradation)”.
The same measure, in the same setting: next, `O=C(Nc1ccc(-c2cc3c(cc2Cl)OC(F)(F)O3)cn1)c1c(F)cncc1F` [Compound 9]: “Stable (Stable is defined herein as less than 10% degradation)”; `O=C(Nc1cnc(-c2cc3c(cc2Cl)OC(F)(F)O3)cn1)c1ccccc1F` [Compound 13]: “Stable (Stable is defined herein as less than 10% degradation)”.
The same measure, in the same setting: next, `Cc1nnsc1C(=O)Nc1cnc(-c2cc3c(cc2Cl)OC(F)(F)O3)cn1` [Compound 14]: “Stable (Stable is defined herein as less than 10% degradation)”; `Cc1ccccc1C(=O)Nc1cnc(-c2cc3c(cc2Cl)OC(F)(F)O3)cn1` [Compound 17]: “Stable (Stable is defined herein as less than 10% degradation)”; `O=C(Nc1cnc(-c2cc3c(cc2Cl)OC(F)(F)O3)cn1)c1cccc(F)c1F` [Compound 18]: “Stable (Stable is defined herein as less than 10% degradation)”.
On the same count and under the same terms, then `Cc1ccc(F)cc1C(=O)Nc1cnc(-c2cc3c(cc2Cl)OC(F)(F)O3)cn1` [Compound 19], with “Stable (Stable is defined herein as less than 10% degradation)”.
With `Cc1cc2c(cc1-c1ccc(NC(=O)c3c(F)cccc3F)nc1)OC(F)(F)O2` [Compound 21], the “Microsomal t ½ (min)” value is given as “Stable (Stable is defined herein as less than 10% degradation)”.
Still for that read-out and setting: then `Cc1cc2c(cc1-c1cnc(NC(=O)c3c(F)cccc3F)cn1)OC(F)(F)O2` [Compound 23], with “Stable (Stable is defined herein as less than 10% degradation)”; and `Cc1cc2c(cc1-c1cnc(NC(=O)c3ccccc3F)cn1)OC(F)(F)O2` [Compound 25], with “Stable (Stable is defined herein as less than 10% degradation)”.
On the same count and under the same terms, then `Cc1cc2c(cc1-c1cnc(NC(=O)c3c(F)cncc3F)cn1)OC(F)(F)O2` [Compound 28], with “Stable (Stable is defined herein as less than 10% degradation)”.
Take `CC(C)C(=O)Nc1ccc(-c2cc3c(cc2Cl)OC(F)(F)O3)cn1` [Compound 34]: the “Microsomal t ½ (min)” value is recorded as “Stable (Stable is defined herein as less than 10% degradation)”.
Regarding `Cc1cc2c(cc1-c1ccc(NC(=O)c3c(F)cncc3F)nc1)OC(F)(F)O2` [Compound 35], the “Microsomal t ½ (min)” value is “Stable (Stable is defined herein as less than 10% degradation)”.

The series is the same for the next values; noted with them: pH 7.4, 5 μM test compound, 1 mg/mL microsomal protein, 37° C. up to 60 minutes, species and Phase I / Phase I+II not given, read-out: Microsomal t ½.
In the case of `O=C(Nc1ccc(-c2cc3c(cc2Br)OCO3)cn1)c1c(F)cccc1F` [Compound 1], the half-life at 5 μM was 6 min.
Same read-out and setting: then `O=C(Nc1ccc(-c2cc3c(cc2Br)OCO3)cc1)c1c(F)cccc1F` [Compound 2], with 3 min; and `O=C(Nc1ccc(-c2cc3c(cc2Cl)OC(F)(F)O3)cn1)c1ccncc1F` [Compound 4], with 281 min; and `O=C(Nc1ccc(-c2cc3c(cc2Cl)OC(F)(F)O3)cn1)c1ccncc1Cl` [Compound 7], with 339 min.
Take `Cc1cc2c(cc1-c1ccc(NC(=O)c3c(F)cccc3F)nc1)OCO2` [Compound 10]: the half-life at 5 μM came out at 22 min.
Still for that read-out and setting: then `[2H]C1([2H])Oc2cc(C)c(-c3ccc(NC(=O)c4c(F)cccc4F)nc3)cc2O1` [Compound 15], with 36 min.
On the same count and under the same terms, then `[2H]C1([2H])Oc2cc(C)c(-c3cnc(NC(=O)c4c(F)cccc4F)cn3)cc2O1` [Compound 16], with 17 min.
In the case of `Cc1c(F)cccc1C(=O)Nc1cnc(-c2cc3c(cc2Cl)OC(F)(F)O3)cn1` [Compound 20], the half-life at 5 μM amounted to 74 min.
The same measure, in the same setting: then `Cc1ccccc1C(=O)Nc1ccc(-c2cc3c(cc2C)OC(F)(F)O3)cn1` [Compound 22], with 109 min; and `Cc1ccccc1C(=O)Nc1cnc(-c2cc3c(cc2C)OC(F)(F)O3)cn1` [Compound 24], with 67 min.
As for `Cc1ccc(F)cc1C(=O)Nc1cnc(-c2cc3c(cc2C)OC(F)(F)O3)cn1` [Compound 26], the half-life at 5 μM turned out to be 47 min.
Consider `O=C(Nc1ccc(-c2cc3c(cc2Cl)OC(F)(F)O3)cn1)C1CCCC1` [Compound 27], for which the half-life at 5 μM amounted to 40 min.
On the same count and under the same terms, then `O=C(Nc1cnc(-c2cc3c(cc2Cl)OC(F)(F)O3)cn1)C1CCCC1` [Compound 29], with 38 min; and `O=C(Nc1ccc(-c2cc3c(cc2Cl)OC(F)(F)O3)cn1)C1CCC1` [Compound 30], with 11 min; and `O=C(CCc1ccccc1)Nc1ccc(-c2cc3c(cc2Cl)OC(F)(F)O3)cn1` [Compound 31], with 26 min.
Same read-out and setting: next, `CCCC(=O)Nc1ccc(-c2cc3c(cc2Cl)OC(F)(F)O3)cn1` [Compound 32]: 19 min; `O=C(Nc1ccc(-c2cc3c(cc2Cl)OC(F)(F)O3)cn1)C1CC1` [Compound 33]: 81 min.
